Experimental data as given in publication PMC4147344, “Discovery of novel non-ATP competitive FGFR1 inhibitors and evaluation of their anti-tumor activity in non-small cell lung cancer in vitro and in vivo” (Oncotarget, 2014).
“And” between values parts separate entries of the source, which are not always exact repeats. Equal entries are not always repeated. Where two headings read alike, the source gives them in different places.

Experiments:
[1] = system: H460 xenograft tumor tissue; experiment: Protein levels in xenograft tumor tissue (western blot, immunohistochemistry); format: in vivo, BALB/cA nude mice; settings: 3 mg/kg/d i.p.; for Phosphorylated FGFR1 in tumor tissue (western blot): compared to untreated group; for Expression of Bcl-2, Cyclin D1 and cox-2 in tumor tissue (immunohistochemistry): compared with model group
Experimental: (§1) Figure 4 Anti-tumor effects of compounds […] H460 xenograft models Xenografts were established in nude mice. […] (A) Tumor volume (mm^3) and (B) Tumor weight (g) were recorded (* P <0.05, ** P < 0.01). (C) Body weight of each mice was recorded. (D) pFGFR1 expressions in tumor tissues were detected by Western Blot with FGFR1 as internal control. (E) The levels of p-ERK, p-AKT, Bcl-2, CyclinD1, and COX-2 in tumor tissues were detected by immunohistochemical staining. Representative pictures are shown.

[2] = Body weight of mice in H460 xenograft study; format: in vivo, BALB/cA nude mice; settings: for Change of body weight during treatment: 3 mg/kg/d i.p. for 28 days; for Body weight: 3 mg/kg/d i.p., in g (unit assumed)
Experimental: as §1

H460 cells [3] = experiment: MTT anti-proliferation assay; format: cell-based, human; settings: for Time-course cell survival (MTT): 20 μM, 0-72 h; for IC50: Homo sapiens, NCI-H460, 72 h, read-out: IC50 against H460 cells (MTT)
Experimental: (§2) Figure 3 […]25 inhibited proliferation and induced apoptosis in H460 cells (A) H460 cells were pretreated with compounds at indicated concentrations, followed by the treatment with bFGF (30 ng/mL) for 10 min. The phosphorylation level of FGFR1 in cell lysates was measured by western blot analysis. The column figures show the normalized optical density as a percentage of total FGFR1 control. (B) H460 cells were treated with compounds at concentrations (0.74, 2.22, 6.67, 20, and 60 μM) for 72 h. The MTT assay gives the respective IC50 values of compounds. (C) The time-course cell survival profile of H460 cells treated by compounds at 20 μM was detected through an MTT assay. (D) Effects of […]25 on caspase activation in H460 cells. […] The levels of cleaved caspase-3 and cleaved caspase-9 were determined by western blot analysis.

H460 cells [4] = experiment: bFGF-induced phosphorylation of FGFR1, western blot; format: cell-based, human; settings: bFGF 30 ng/mL for 10 min, pretreatment with compound
Experimental: as §2

[5] = system: FGFR1-overexpressing HEK293 cells; experiment: bFGF-induced phosphorylation of FGFR1 and ERK, western blot; format: cell-based; settings: bFGF 30 ng/mL for 10 min, pretreatment with compound
Experimental: (C and D) FGFR1 over-expressing 293 cells were pretreated with compounds at indicated concentrations or vehicle (0.1% DMSO), respectively. Then, cells were stimulated with bFGF (30 ng/mL) for 10 min, and the phosphorylation level of FGFR1 and ERK in cell lysates was measured by western blot analysis. The figures were representative of 3 separate experiments (C). […] Statistical significance relative to bFGF alone group was expressed, * P <0.05, ** P < 0.01.
Cells or homogenated tumor tissues were lysated. The protein concentrations in all samples were determined by using the Bradford protein assay kit (Bio-Rad, Hercules, CA). The supernatant was run on 10% SDS-PAGE gel followed by being transferred to a PVDF membrane. After being blocked with 5% non-fat dry milk in TBST for 1.5h, the membrane was incubated with the primary antibody overnight followed by incubation with goat anti-rabbit IgG, HRP-linked antibody for 1 h. The blots were detected with an ECL detection kit (Bio-Rad, Hercules, CA) according to the manufacturer's procedure. The results were analyzed by Quantity One software to determine the relative band density ratio.

H460 cells [6] = experiment: Apoptosis analysis, Annexin V/PI flow cytometry; format: cell-based, human; settings: 2.5, 5, 10 μM
H460 cells [7] = experiment: Caspase activation (cleaved caspase-3 and -9), western blot; format: cell-based, human; settings: 10 μM, 12 h
Experimental: as §2

H460 xenograft = experiment: In vivo anti-tumor study, H460 xenograft; parameters: species or system BALB/cA nude mice; settings: for Tumor weight inhibition rate: 3 mg/kg/d i.p. once daily for 28 days; for Tumor volume: 3 mg/kg/d i.p., 28th day, compared to model group
Experimental: as §1

PDGFRβ = target: T1, PDGFRβ (Homo sapiens, UniProt P09619); experiment: Cell-free kinase activity assay (Caliper Mobility Shift Assay); format: biochemical; settings: ATP at Km; mean of 3-5 independent tests
T1 construct: purchased Carna Biosciences Inc. (Kobe, Japan)
Experimental: (§3) Compounds were performed with caliper mobility shift assay for RTK inhibition, and the IC50 values were calculated using conversion rates. The data were shown as a mean of 3-5 independent tests.
(§4) The activity of tyrosine kinase including FGFR1, FGFR2, FGFR3, EGFR, VEGFR-2, c-MET, and PDGFR-β were tested by Caliper Mobility Shift Assay on Caliper EZ reader (Caliper Life Sciences, MA) according to the instructions provided. […] For each kinase assay, the ATP concentration used in the assay was set at the Km value of the corresponding kinase. […] In the electrophoretic mobility shift assays, product accumulation was expressed as percentage conversion, product peak height/(product peak height + substrate peak height).

FGFR1 [8] = target: T2, FGFR1 (Homo sapiens, UniProt P11362); experiment: ATP competitive inhibition assay (caliper mobility shift assay); format: biochemical; settings: ATP 33-4192 μM, substrate constant
T2 construct: purchased Carna Biosciences Inc. (Kobe, Japan)
T2 sequence (P11362 22-822): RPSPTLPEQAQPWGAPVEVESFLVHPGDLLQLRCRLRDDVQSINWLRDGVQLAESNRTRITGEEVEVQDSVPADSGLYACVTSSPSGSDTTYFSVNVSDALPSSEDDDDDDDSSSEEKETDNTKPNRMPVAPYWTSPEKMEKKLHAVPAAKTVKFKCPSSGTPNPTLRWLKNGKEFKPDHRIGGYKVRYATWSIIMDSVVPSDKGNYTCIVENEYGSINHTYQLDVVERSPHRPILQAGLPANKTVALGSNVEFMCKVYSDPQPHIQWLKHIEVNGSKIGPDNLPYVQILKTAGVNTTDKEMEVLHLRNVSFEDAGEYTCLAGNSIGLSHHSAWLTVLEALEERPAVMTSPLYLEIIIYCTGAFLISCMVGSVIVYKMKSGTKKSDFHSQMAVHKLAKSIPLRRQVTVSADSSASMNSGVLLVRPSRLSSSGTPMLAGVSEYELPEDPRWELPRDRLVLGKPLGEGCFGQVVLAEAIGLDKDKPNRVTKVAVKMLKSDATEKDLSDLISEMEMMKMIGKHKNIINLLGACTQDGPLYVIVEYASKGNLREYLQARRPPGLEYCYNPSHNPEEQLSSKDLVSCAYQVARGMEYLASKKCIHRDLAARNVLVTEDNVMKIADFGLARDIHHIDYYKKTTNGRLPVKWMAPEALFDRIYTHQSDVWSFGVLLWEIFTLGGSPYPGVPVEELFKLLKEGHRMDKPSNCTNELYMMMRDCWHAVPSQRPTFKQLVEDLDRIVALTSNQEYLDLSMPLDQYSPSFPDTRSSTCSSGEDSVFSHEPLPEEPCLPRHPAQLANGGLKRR
Experimental: In the experiments for testing the relationship between the compounds and ATP, the concentration of the substrate was constant, while the concentrations of ATP were set at 4192, 2096, 1048, 524, 262, 131, 66, and33 μM. The global competitive inhibition fit for the compounds was performed based on percent conversion = (Vmax*X)/{km*[([1] + I/Ki)^n] + X}, where X is the ATP concentration, and n is the Hill coefficient.

FGFR2 = target: T3, FGFR2 (Homo sapiens, UniProt P21802); experiment: Cell-free kinase activity assay (Caliper Mobility Shift Assay); format: biochemical
T3 construct: purchased Carna Biosciences Inc. (Kobe, Japan)
Experimental: as §3, §4

FGFR1 [9] = target: T2, FGFR1; experiment: as above; format: biochemical; settings: ATP at Km; mean of 3-5 independent tests
Experimental: as §3, §4

VEGFR2 = target: T4, VEGFR2 (Homo sapiens, UniProt P35968); experiment: as above; format: biochemical; settings: ATP at Km; mean of 3-5 independent tests
T4 construct: purchased Carna Biosciences Inc. (Kobe, Japan)
T4 sequence (P35968 20-1356): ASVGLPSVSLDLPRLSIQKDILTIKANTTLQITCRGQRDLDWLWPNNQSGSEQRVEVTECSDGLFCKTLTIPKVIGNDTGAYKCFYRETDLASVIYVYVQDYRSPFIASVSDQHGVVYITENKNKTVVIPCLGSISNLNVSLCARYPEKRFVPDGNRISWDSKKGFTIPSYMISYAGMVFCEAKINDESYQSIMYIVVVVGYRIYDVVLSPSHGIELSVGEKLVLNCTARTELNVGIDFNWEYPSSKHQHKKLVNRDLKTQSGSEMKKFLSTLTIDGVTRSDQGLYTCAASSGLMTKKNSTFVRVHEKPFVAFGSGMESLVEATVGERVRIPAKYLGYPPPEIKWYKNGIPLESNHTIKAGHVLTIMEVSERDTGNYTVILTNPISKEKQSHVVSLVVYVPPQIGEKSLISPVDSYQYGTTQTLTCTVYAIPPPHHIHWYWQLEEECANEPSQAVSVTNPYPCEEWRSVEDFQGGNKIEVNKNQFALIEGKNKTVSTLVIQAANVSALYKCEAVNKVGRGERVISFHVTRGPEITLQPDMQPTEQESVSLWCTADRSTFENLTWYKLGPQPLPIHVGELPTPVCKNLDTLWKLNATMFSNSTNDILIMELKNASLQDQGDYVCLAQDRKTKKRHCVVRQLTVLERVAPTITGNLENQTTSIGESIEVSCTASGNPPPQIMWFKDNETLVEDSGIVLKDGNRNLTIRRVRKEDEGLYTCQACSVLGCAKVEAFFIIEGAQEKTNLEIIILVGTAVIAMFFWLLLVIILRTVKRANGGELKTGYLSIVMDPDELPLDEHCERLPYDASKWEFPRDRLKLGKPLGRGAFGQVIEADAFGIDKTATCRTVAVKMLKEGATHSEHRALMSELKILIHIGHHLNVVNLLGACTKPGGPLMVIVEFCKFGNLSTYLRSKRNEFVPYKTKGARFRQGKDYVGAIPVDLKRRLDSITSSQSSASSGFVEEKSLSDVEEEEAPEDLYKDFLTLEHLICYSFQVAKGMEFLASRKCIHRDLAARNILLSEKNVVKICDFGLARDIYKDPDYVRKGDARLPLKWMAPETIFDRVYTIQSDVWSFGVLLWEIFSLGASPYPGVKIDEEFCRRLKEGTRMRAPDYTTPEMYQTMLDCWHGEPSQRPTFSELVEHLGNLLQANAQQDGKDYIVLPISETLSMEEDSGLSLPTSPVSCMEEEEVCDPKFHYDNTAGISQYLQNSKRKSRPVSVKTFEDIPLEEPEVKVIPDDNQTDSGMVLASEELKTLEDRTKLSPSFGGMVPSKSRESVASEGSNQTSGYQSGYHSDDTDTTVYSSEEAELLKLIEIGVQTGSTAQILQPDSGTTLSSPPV
Experimental: as §3, §4

FGFR3 = target: T5, FGFR3 (Homo sapiens, UniProt P22607); experiment: as above; format: biochemical
T5 construct: purchased Carna Biosciences Inc. (Kobe, Japan)
Experimental: as §3, §4

EGFR = target: T6, EGFR (Homo sapiens, UniProt P00533); experiment: as above; format: biochemical; settings: ATP at Km; mean of 3-5 independent tests
T6 construct: purchased Carna Biosciences Inc. (Kobe, Japan)
T6 sequence (P00533 25-1210): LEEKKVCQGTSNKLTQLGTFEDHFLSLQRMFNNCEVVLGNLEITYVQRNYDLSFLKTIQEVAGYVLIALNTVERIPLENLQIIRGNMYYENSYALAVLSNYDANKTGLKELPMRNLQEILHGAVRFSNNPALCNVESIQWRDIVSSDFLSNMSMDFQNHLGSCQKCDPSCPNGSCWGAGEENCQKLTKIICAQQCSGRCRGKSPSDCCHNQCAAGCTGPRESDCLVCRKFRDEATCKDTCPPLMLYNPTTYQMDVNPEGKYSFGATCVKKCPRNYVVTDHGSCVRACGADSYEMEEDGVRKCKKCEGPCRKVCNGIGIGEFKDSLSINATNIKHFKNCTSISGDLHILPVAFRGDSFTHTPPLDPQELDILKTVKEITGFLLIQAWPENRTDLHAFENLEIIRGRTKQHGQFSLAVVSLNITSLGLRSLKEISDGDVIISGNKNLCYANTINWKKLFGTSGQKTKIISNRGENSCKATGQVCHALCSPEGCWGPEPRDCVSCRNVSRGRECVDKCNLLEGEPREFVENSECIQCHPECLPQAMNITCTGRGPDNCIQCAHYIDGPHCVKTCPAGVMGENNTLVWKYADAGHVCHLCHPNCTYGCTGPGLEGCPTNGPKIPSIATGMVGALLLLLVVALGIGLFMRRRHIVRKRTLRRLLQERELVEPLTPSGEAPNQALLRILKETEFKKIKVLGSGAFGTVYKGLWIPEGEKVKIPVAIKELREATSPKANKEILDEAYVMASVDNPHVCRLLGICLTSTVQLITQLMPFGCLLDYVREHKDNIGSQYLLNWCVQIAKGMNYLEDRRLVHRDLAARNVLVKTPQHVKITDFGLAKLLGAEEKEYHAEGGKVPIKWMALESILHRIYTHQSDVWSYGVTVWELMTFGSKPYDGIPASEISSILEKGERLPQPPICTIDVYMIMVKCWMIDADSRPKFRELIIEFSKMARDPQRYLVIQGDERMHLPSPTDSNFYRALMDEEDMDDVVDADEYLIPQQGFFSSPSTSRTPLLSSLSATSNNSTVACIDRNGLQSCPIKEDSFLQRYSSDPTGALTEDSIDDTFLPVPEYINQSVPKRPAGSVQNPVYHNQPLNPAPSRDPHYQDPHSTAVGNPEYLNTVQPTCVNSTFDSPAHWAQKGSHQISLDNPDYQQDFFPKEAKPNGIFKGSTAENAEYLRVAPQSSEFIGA
Experimental: as §3, §4

c-MET = c-MET (Homo sapiens, UniProt P08581); experiment: as above; format: biochemical; settings: ATP at Km; mean of 3-5 independent tests
Chain of c-MET (P08581 25-1390): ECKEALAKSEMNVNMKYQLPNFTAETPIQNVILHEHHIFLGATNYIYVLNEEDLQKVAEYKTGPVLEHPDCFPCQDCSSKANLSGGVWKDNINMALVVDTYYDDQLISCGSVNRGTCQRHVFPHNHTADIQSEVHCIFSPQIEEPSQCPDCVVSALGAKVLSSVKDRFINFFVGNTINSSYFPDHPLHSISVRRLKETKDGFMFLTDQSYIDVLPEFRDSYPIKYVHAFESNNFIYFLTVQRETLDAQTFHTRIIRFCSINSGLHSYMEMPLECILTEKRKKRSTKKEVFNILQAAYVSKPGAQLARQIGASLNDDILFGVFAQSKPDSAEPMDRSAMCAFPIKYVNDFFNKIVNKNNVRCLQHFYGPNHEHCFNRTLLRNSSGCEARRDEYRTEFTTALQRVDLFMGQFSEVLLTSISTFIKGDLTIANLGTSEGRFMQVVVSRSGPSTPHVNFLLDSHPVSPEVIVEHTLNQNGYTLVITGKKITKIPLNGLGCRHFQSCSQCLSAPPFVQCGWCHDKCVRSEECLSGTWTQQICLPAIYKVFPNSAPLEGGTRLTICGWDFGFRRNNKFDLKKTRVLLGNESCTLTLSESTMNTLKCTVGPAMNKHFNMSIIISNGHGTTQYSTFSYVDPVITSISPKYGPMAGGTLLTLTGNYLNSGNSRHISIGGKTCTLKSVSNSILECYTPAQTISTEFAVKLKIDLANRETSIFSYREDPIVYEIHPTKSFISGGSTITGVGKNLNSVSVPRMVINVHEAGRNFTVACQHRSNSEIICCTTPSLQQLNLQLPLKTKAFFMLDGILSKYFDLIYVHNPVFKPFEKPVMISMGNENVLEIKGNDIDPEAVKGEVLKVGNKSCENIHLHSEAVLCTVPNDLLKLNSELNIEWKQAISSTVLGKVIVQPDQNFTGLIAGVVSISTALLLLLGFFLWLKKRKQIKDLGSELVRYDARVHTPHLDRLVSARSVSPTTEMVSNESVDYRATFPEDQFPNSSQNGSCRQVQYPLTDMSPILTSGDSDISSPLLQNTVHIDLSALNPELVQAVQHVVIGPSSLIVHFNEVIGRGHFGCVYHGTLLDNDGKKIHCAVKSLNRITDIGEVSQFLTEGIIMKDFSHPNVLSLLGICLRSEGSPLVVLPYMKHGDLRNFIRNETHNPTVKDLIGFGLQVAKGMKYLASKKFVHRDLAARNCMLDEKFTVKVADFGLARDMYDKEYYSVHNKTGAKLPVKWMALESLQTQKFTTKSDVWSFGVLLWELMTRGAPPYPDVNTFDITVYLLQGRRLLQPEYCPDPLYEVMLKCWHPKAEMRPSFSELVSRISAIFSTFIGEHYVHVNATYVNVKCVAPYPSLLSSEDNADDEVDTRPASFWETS
Experimental: as §3, §4

For `O=C1/C(=C/c2ccccc2Cl)CNC/C1=C\c1ccccc1Cl` [Aea4], the “Phosphorylated FGFR1 in tumor tissue (western blot)” value [1] was “decreased expression of phosphorylated FGFR1”, the “Expression of Bcl-2, Cyclin D1 and cox-2 in tumor tissue (immunohistochemistry)” value [1] was “effectively restrained the expression of Bcl-2, Cyclin D1 and cox-2” and the “Change of body weight during treatment” value [2] was “no obvious change”. For the same compound, the Body weight ([2]; Week 1st) was 23.37 ± 0.73, the Body weight ([2]; Week 2nd) was 24.94 ± 0.83 and the Body weight ([2]; Week 3rd) was 25.81 ± 0.85. For the same compound, the Body weight ([2]; Week 4th) was 24.94 ± 0.79, the “Time-course cell survival (MTT)” value (H460 cells [3]) was “inhibit cell proliferation and increase cell death of H460 time-dependently” and the IC50 (H460 cells [3]) was 5 µM. For the same compound, the “Phosphorylation of FGFR1” value (H460 cells [4]) was “inhibited this effect in a dose-dependent fashion”, the “Phosphorylation of FGFR1 and ERK” value [5] was “inhibited their phosphorylation of FGFR1 and ERK in a dose-dependent manner” and the Apoptotic cell rate (H460 cells [6]) was “induced H460 cell apoptosis in a dose-dependent manner”. The “Expression of cleaved caspase 3 and 9” value (H460 cells [7]) was “significantly increased”, the “Tumor weight inhibition rate” value (H460 xenograft) was 55.0% and the Tumor volume (H460 xenograft) was “significant reduction in tumor volume at the 28th day”.

With `C[C@H](Cc1ccc(O)c(O)c1)[C@@H](C)Cc1ccc(O)c(O)c1` [NDGA, Nordihydroguaiaretic acid, reference compound] the IC50 (PDGFRβ) was greater than 100 µM, the “Effect of increased ATP concentration on FGFR1 inhibition (mode of inhibition)” value (FGFR1 [8]) was “did not affect the rate of FGFR1 substrate phosphorylation” and the IC50 (FGFR2; ATP at Km, mean of 3-5 independent tests, read-out: IC50 FGFR2) was greater than 100 µM. It also gave an IC50 (H460 cells [3]) of 15.6 ± 1.2 µM, an IC50 (FGFR1 [9]) of 24.5 µM and an IC50 (VEGFR2) greater than 100 µM. The IC50 (FGFR3; ATP at Km, mean of 3-5 independent tests, read-out: IC50 FGFR3) was 72.4 µM, the IC50 (EGFR) was 89.9 µM and the IC50 (c-MET) was greater than 100 µM.

With `O=C1/C(=C/c2ccccc2Br)CNC/C1=C\c1ccccc1Br` [Aea25] the IC50 (PDGFRβ) was 84 µM, the “Phosphorylated FGFR1 in tumor tissue (western blot)” value [1] was “decreased expression of phosphorylated FGFR1” and the “Expression of Bcl-2, Cyclin D1 and cox-2 in tumor tissue (immunohistochemistry)” value [1] was “effectively restrained the expression of Bcl-2, Cyclin D1 and cox-2”. For the same compound, the “Effect of increased ATP concentration on FGFR1 inhibition (mode of inhibition)” value (FGFR1 [8]) was “ATP independent manner”, the “Change of body weight during treatment” value [2] was “no obvious change” and the Body weight ([2]; Week 1st) was 22.01 ± 0.75. The Body weight ([2]; Week 2nd) was 24.02 ± 0.53, the Body weight ([2]; Week 3rd) was 25.26 ± 0.38 and the Body weight ([2]; Week 4th) was 25.36 ± 0.51. The IC50 (FGFR2) was 43.3 µM, the “Time-course cell survival (MTT)” value (H460 cells [3]) was “inhibit cell proliferation and increase cell death of H460 time-dependently” and the IC50 (H460 cells [3]) was 5.8 µM. The “Phosphorylation of FGFR1” value (H460 cells [4]) was “inhibited this effect in a dose-dependent fashion”, the IC50 (FGFR1 [9]) was 8.8 µM and 6.5 µM and the IC50 (VEGFR2) was 28.6 µM. For the same compound, the “Phosphorylation of FGFR1 and ERK” value [5] was “inhibited their phosphorylation of FGFR1 and ERK in a dose-dependent manner”, the Apoptotic cell rate (H460 cells [6]) was “induced H460 cell apoptosis in a dose-dependent manner” and the IC50 (FGFR3) was 43.2 µM. For the same compound, the IC50 (EGFR) was 33.3 µM, the “Expression of cleaved caspase 3 and 9” value (H460 cells [7]) was “significantly increased” and the “Tumor weight inhibition rate” value (H460 xenograft) was 66.5%. The Tumor volume (H460 xenograft) was “significant reduction in tumor volume at the 28th day” and the IC50 (c-MET) was 8.2 µM.
